Columns and labels:
hA2AAR = biological target: T1, hA2AAR (Homo sapiens, UniProt P29274); experiment: Radioligand binding in membranes of HEK293 cells expressing hA2AAR; conditions: read-out: A2AAR % inhibition; for Ki: (h), values without % sign (Ki)
T1 construct: expressed in transfected cells; host or cells: HEK293

hA1AR = biological target: T2, hA1AR (Homo sapiens, UniProt P30542); experiment: Radioligand binding in membranes of CHO cells expressing hA1AR, [3H]N6-R-phenylisopropyladenosine; conditions: read-out: A1AR % inhibition or Ki; for Ki: (h)
T2 construct: expressed in transfected cells; host or cells: CHO
T2 sequence (P30542 1-326): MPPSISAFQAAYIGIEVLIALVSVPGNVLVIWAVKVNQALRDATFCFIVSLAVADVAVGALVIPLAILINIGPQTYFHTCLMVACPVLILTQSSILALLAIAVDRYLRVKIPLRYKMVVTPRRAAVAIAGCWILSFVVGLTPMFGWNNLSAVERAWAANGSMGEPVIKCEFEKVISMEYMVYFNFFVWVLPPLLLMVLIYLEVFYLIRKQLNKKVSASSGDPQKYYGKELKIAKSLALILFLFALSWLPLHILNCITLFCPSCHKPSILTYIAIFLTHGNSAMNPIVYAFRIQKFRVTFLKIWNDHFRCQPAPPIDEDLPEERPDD

hA3AR = biological target: T3, hA3AR (Homo sapiens, UniProt P0DMS8); experiment: Radioligand binding in membranes of CHO cells expressing hA3AR; conditions: read-out: A3AR % inhibition or Ki; for Ki: (h)
T3 construct: expressed in transfected cells; host or cells: CHO
T3 sequence (P0DMS8 1-318): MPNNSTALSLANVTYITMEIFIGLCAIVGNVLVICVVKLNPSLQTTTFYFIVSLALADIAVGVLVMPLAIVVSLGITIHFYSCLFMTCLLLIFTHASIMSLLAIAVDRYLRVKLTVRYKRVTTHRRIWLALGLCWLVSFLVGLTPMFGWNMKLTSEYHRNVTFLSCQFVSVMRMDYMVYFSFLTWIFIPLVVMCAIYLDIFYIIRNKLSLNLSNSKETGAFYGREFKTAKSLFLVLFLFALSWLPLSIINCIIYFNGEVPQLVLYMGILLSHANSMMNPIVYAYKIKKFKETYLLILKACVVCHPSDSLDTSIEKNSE

[1] = biological target: TSPO (translocator protein) (UniProt P30536); experiment: Off-target interaction determined by the PDSP; assay type: binding, human; conditions: read-out: Off-target, receptor (h, unless noted) (Ki, μM): TSPO
sigma receptor σ1 = sigma receptor σ1 (Homo sapiens, UniProt Q99720); experiment: Off-target interaction determined by the PDSP; assay type: binding; conditions: read-out: Off-target, receptor (h, unless noted) (Ki, μM): σ1
Chain of sigma receptor σ1 (Q99720 whole entry): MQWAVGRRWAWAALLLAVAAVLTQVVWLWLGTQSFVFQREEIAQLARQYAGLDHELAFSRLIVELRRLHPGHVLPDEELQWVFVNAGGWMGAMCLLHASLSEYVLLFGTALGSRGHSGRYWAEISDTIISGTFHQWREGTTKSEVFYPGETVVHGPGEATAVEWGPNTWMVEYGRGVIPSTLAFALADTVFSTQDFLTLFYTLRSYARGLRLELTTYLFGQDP

sigma receptor σ2 = sigma receptor σ2 (UniProt Q5BJF2); experiment: Off-target interaction determined by the PDSP; assay type: binding, human; conditions: read-out: Off-target, receptor (h, unless noted) (Ki, μM): σ2
mA1AR = biological target: T4, mA1AR (Mus musculus, UniProt Q60612); experiment: Adenosine receptor binding, mA1AR; conditions: (m); Ki; read-out: A1AR % inhibition or Ki (converted)
T4 sequence (Q60612 1-326): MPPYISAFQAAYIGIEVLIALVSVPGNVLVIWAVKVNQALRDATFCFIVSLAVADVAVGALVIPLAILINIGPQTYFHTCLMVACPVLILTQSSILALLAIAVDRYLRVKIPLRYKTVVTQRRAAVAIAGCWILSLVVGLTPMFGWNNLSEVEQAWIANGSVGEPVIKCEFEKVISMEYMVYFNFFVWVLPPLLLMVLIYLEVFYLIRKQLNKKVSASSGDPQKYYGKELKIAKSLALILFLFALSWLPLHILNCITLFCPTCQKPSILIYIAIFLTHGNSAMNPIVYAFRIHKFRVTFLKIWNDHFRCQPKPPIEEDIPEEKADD

mA2AAR = mA2AAR (Mus musculus, UniProt Q60613); experiment: Adenosine receptor binding, mA2AAR; conditions: read-out: A2AAR % inhibition (converted)
Chain of mA2AAR (Q60613 whole entry): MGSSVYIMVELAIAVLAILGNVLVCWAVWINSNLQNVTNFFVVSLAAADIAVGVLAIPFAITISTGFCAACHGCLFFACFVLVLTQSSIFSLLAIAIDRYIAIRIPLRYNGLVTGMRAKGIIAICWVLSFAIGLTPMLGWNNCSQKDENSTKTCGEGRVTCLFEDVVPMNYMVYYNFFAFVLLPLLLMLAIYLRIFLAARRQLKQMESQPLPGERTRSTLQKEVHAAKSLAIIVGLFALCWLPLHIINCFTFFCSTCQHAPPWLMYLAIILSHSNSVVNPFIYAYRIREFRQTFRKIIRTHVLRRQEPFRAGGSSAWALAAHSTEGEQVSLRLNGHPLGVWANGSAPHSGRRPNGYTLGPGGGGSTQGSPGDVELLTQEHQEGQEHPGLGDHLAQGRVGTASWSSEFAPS

mA3AR = biological target: T5, mA3AR (Mus musculus, UniProt Q61618); experiment: Adenosine receptor binding, mA3AR; conditions: (m); Ki; read-out: A3AR % inhibition or Ki (converted)
T5 sequence (Q61618 1-319): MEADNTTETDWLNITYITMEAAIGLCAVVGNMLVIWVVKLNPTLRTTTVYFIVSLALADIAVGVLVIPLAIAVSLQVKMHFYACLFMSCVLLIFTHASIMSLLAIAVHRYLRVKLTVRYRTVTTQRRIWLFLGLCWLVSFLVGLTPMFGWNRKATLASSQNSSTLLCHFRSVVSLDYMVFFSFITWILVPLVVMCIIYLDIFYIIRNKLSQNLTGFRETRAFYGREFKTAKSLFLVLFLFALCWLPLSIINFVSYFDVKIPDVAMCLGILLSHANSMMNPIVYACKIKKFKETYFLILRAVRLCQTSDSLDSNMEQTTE

serotonin receptor 5HT2B = serotonin receptor 5HT2B (Homo sapiens, UniProt P41595); experiment: Off-target interaction determined by the PDSP; assay type: binding; conditions: read-out: Off-target, receptor (h, unless noted) (Ki, μM): 5HT2B
Chain of serotonin receptor 5HT2B (P41595 whole entry): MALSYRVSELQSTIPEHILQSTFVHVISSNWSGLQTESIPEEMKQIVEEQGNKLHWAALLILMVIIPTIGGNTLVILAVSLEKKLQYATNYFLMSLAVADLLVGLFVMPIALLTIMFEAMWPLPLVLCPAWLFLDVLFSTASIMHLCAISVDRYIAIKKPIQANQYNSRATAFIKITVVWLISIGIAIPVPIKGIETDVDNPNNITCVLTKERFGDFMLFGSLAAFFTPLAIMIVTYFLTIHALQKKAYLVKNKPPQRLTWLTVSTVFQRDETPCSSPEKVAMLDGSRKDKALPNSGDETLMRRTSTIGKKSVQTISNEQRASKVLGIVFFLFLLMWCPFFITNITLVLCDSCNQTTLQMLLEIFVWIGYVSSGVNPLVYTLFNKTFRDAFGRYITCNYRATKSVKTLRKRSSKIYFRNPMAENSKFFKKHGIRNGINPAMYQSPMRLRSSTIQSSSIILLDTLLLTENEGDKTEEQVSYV

serotonin receptor 5HT2C = biological target: T6, serotonin receptor 5HT2C (Homo sapiens, UniProt P28335); experiment: Off-target interaction determined by the PDSP; assay type: binding; conditions: read-out: Off-target, receptor (h, unless noted) (Ki, μM): 5HT2C
T6 sequence (P28335 33-458): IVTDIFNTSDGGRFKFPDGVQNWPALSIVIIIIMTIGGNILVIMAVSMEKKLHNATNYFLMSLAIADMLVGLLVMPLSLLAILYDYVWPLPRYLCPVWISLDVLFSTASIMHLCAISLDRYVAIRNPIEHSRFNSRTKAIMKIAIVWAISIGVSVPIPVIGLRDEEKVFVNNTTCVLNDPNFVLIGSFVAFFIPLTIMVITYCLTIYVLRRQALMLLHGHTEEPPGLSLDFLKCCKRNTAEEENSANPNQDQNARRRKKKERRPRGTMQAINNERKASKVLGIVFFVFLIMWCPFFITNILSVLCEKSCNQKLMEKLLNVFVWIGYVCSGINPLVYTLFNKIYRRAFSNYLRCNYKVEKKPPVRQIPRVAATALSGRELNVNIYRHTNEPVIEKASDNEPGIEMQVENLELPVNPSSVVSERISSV

T1 sequence (P29274 whole entry): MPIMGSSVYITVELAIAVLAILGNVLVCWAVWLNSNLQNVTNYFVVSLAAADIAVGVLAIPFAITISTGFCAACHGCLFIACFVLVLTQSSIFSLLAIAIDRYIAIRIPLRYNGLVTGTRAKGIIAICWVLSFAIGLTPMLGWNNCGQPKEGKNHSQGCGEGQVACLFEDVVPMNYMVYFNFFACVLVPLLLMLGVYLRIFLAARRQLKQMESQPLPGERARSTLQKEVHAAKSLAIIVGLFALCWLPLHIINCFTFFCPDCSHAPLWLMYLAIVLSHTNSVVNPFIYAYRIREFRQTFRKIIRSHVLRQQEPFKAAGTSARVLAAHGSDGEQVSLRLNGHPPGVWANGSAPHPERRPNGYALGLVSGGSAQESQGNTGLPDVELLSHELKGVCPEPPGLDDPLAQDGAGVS

SMILES	Ki (hA2AAR) [nM]	Ki (hA1AR) [nM]	Ki (hA3AR) [nM]	inhibition at 10 µM (hA2AAR) [%]	Ki (serotonin receptor 5HT2B) [µM]	Ki (serotonin receptor 5HT2C) [µM]	other results
Nc1ncnc2c1ncn2[C@@H]1O[C@H](C(=O)NCCO)[C@@H](O)[C@H]1O [Compound 18, reference compound]	505 ± 30	12.8	9450				
O[C@@H]1[C@H](O)[C@@H]2C[C@@H]2[C@H]1n1cnc2c(NC(C3CCC3)C3CCC3)nc(Cl)nc21 [Compound 19]				46 ± 6			Ki [1]: 2.38 µM
Nc1nc(Cl)nc2c1ncn2[C@H]1[C@H](O)[C@H](O)[C@]2(CCl)C[C@H]12 [Compound 22]	1750 ± 290	7.61 ± 0.73	253 ± 148				Ki (sigma receptor σ1): 1.97 µM; Ki (sigma receptor σ2): 2.55 µM
O[C@H]1[C@H](n2cnc3c(NC(C4CCC4)C4CCC4)nc(Cl)nc32)[C@H]2C[C@@]2(CSc2ccccc2F)[C@H]1O [Compound 28, (1S,2R,3S,4R,5S)-4-(2-Chloro-6-((dicyclobutylmethyl)amino)-9H-purin-9-yl)-1-(((2-fluorophenyl)thio)methyl)bicyclo[3.1.0]hexane-2,3-diol]			9750 ± 4030	22 ± 5	0.334	1.46	Ki (mA1AR): 2490 nM; inhibition at 10 µM (mA2AAR): 20%; Ki (sigma receptor σ2): 0.583 µM; Ki (mA3AR): 7440 nM; inhibition at 10 µM (hA1AR): 45 ± 4%
CCOC(=O)[C@@]12C[C@@H]1[C@@H](n1cnc3c(NC(C4CC4)C4CC4)nc(Cl)nc31)[C@H](O)[C@@H]2O [Compound 32]		360 ± 74	236 ± 41		0.015	0.054	

The next lines start with results.

Ki (hA2AAR) [nM]	Ki (hA1AR) [nM]	Ki (hA3AR) [nM]	inhibition at 10 µM (hA2AAR) [%]	Ki (serotonin receptor 5HT2B) [µM]	Ki (serotonin receptor 5HT2C) [µM]	SMILES	other results
			15 ± 2			CCOC(=O)[C@@]12C[C@@H]1[C@@H](n1cnc3c(NC(C4CC4)C4CC4)nc(Cl)nc31)[C@@H]1OC(C)(C)O[C@@H]12 [Compound 33]	inhibition at 10 µM (hA1AR): 49 ± 9%; inhibition at 10 µM (hA3AR): 41 ± 6%
4320 ± 1870	110 ± 14	34 ± 11		0.023	0.749	CNC(=O)[C@@]12C[C@@H]1[C@@H](n1cnc3c(NC(C4CC4)C4CC4)nc(Cl)nc31)[C@H](O)[C@@H]2O [Compound 34]	
520 ± 119	1.22 ± 0.05	59 ± 17.8		1.57		O=C(NC1CC1)[C@@]12C[C@@H]1[C@@H](n1cnc3c(N[C@H]4C[C@H]5CC[C@@H]4C5)nc(Cl)nc31)[C@H](O)[C@@H]2O [Compound 36, (1S,2R,3S,4R,5S)-4-(6-(((1R,2S,4S)-bicyclo[2.2.1]heptan-2-yl)amino)-2-chloro-9H-purin-9-yl)-N-cyclopropyl-2,3-dihydroxybicyclo[3.1.0]hexane-1-carboxamide]	Ki (mA1AR): 0.45 nM; Ki (mA2AAR; (m), values without % sign (Ki)): 2650 nM; Ki (mA3AR): 29.5 nM
			23 ± 6			NC(=O)c1ncn([C@@H]2O[C@H](CO)[C@@H](O)[C@H]2O)n1 [Compound 38, ribavirin, reference compound]	inhibition at 10 µM (hA3AR): 16 ± 5%
